Measurements reported in article PMC6104039 (Nature Communications, 2018).
Where two headings read alike, the source gives them in different places.

How the values were obtained:
Assay type in all cases: biochemical
[1] = biological target: T1, human CerS2 (Homo sapiens, UniProt Q96G23); assay: Ceramide synthase assay, NBD-dihydrosphingosine, C24:1-CoA; HEK293 cells expressing human CerS2; conditions: inhibitor range 10 nM–100 μM; read-out: IC50 hCerS2
T1 sequence (Q96G23 1-380): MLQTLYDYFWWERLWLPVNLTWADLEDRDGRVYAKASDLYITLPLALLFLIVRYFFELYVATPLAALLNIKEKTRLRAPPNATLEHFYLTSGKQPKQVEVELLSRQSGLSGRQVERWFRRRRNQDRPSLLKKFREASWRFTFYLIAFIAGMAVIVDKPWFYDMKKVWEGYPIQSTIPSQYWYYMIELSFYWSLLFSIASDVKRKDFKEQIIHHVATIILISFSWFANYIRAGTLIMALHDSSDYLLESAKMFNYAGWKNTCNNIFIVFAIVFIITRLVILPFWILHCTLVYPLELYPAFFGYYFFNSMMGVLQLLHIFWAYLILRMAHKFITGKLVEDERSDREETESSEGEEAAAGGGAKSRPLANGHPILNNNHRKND
Method: (§1) Ceramide synthase assays were carried out using an HPLC-based assay with a fluorescent NBD-dihydrosphingosine substrate. All cell lines used for these assays were originally sourced from ATCC. […] Cells were sonicated in a Diagenode Bioruptor sonicating bath for 5 min, after which cell extracts were cleared by centrifugation at 800 × g for 10 min. Protein concentration in the supernatant was assayed using the bicinchoninic acid (BCA) assay, and the supernatant stored at −80 °C. COS cells were infected with lentiviral constructs expressing murine CerS1, 2, or 5, then homogenised as described above.
(§2) The reaction buffer consisted of 20 mM Hepes pH 7.4, 25 mM KCl, 2 mM MgCl2, 0.5 mM dithiothreitol, 0.1% fatty acid free BSA, 10 μM NBD-dihydrosphingosine and 50 μM fatty acid free BSA. C18:0-CoA was used as the fatty acyl substrate for CerS1 and CerS4; C24:1-CoA for CerS2; and C16:0-CoA for CerS5 and CerS6. All reactions were run in triplicate. Test inhibitors were added, after which reactions were started with the addition of 2.5–25 μg lysate protein (optimised depending on the particular CerS isoform being assayed). […] The reaction mixture was transferred to a glass HPLC vial with 300 μL fused glass insert (Thermo Fisher Scientific) and NBD-dihydroceramide reaction products were analysed on a Thermo Scientific Surveyor HPLC connected to a Shimadzu RF-10AXL fluorescent detector (set to gain of 3). […] The gradient started at 20:80 A/B, increasing to 5:95 A/B over 2 min, then to 100% B over 6 min. The gradient was then held at 100% B for 2 min, before re-equilibration to 20:80 A/B for a further 2 min. Peak areas were integrated using Xcalibur software (Thermo Fisher Scientific).

[2] = biological target: T2, CerS1 (Homo sapiens, UniProt P27544); assay: Ceramide synthase assay, HPLC-based with fluorescent NBD-dihydrosphingosine, C18:0-CoA; extracts of HEK293 cells expressing human CerS1; parameters: host or cells: HEK293
T2 sequence (P27544 1-350): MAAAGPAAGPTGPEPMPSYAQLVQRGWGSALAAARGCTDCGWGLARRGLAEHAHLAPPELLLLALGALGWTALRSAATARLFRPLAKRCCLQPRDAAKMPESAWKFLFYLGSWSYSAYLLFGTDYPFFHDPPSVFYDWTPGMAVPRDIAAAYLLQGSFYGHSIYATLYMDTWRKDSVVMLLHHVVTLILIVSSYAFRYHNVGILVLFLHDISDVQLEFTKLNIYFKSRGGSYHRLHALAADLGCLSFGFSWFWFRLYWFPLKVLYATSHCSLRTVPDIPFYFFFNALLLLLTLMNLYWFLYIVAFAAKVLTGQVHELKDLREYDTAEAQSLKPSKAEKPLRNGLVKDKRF
Method: as §1, §2

[3] = biological target: T3, murine CerS1 (Mus musculus, UniProt P27545); assay: Ceramide synthase assay, NBD-dihydrosphingosine, C18:0-CoA; COS cells expressing murine CerS1; conditions: inhibitor range 10 nM–100 μM; read-out: IC50 mCerS1
T3 construct: expressed in transfected cells; host or cells: COS cells (lentiviral infection)
T3 sequence (P27545 whole entry): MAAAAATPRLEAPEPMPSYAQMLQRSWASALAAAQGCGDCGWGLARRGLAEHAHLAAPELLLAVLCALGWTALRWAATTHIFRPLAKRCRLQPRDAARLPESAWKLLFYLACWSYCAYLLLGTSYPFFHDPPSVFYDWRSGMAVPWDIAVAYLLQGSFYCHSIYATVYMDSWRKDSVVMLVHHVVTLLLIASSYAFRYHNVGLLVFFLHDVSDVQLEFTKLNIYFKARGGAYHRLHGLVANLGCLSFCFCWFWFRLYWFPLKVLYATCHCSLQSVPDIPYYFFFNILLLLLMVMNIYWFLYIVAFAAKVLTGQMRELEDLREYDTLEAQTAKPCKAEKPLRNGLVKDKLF
Method: Ceramide synthase assays were carried out using an HPLC-based assay with a fluorescent NBD-dihydrosphingosine substrate. All cell lines used for these assays were originally sourced from ATCC. […] Human CerS expression plasmids (pCMV6 plasmids from Origene) were transfected using FuGene-6 transfection reagent, and cells were harvested 24 h after transfection in 20 mM Hepes pH 7.4, 10 mM KCl, 1 mM dithiothreitol, 3 mM β-glycerophosphate, and EDTA-free complete protease inhibitor cocktail (Roche). Cells were sonicated in a Diagenode Bioruptor sonicating bath for 5 min, after which cell extracts were cleared by centrifugation at 800 × g for 10 min. Protein concentration in the supernatant was assayed using the bicinchoninic acid (BCA) assay, and the supernatant stored at −80 °C. COS cells were infected with lentiviral constructs expressing murine CerS1, 2, or 5, then homogenised as described above.
(§3) The reaction buffer consisted of 20 mM Hepes pH 7.4, 25 mM KCl, 2 mM MgCl2, 0.5 mM dithiothreitol, 0.1% fatty acid free BSA, 10 μM NBD-dihydrosphingosine and 50 μM fatty acid free BSA. […] The reaction mixture was transferred to a glass HPLC vial with 300 μL fused glass insert (Thermo Fisher Scientific) and NBD-dihydroceramide reaction products were analysed on a Thermo Scientific Surveyor HPLC connected to a Shimadzu RF-10AXL fluorescent detector (set to gain of 3). […]

[4] = biological target: murine CerS2 (Mus musculus, UniProt Q924Z4); assay: Ceramide synthase assay, NBD-dihydrosphingosine, C24:1-CoA; COS cells expressing murine CerS2; conditions: inhibitor range 10 nM–100 μM; read-out: IC50 mCerS2
Chain of murine CerS2 (Q924Z4 whole entry): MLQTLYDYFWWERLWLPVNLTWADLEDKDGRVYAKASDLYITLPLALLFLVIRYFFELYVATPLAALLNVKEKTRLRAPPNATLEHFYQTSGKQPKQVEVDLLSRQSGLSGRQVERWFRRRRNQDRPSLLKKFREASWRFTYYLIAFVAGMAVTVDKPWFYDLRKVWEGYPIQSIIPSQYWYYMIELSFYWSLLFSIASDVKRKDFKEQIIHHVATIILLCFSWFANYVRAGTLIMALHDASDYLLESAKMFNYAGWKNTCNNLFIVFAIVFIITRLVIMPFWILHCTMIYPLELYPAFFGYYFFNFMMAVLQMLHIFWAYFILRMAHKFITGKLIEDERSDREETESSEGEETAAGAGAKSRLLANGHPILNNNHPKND
Method: as §1
as §3, with “BSA. C18:0-CoA was used as the fatty acyl substrate for CerS1 and CerS4; C24:1-CoA for CerS2; and C16:0-CoA for CerS5 and CerS6. All reactions were run in triplicate.” for “BSA.”

[5] = inhibitor range 10 nM–100 μM, read-out: IC50 hCerS1

| IC50 [3] [µM] | IC50 ([2]; read-out: IC50 for inhibition of CerS1) [nM] | IC50 [4] [µM] | SMILES | IC50 [1] [µM] | IC50 [2, 5] [nM] | IC50, all CerS isoforms ([2]; all CerS isoforms, in words) |
| --- | --- | --- | --- | --- | --- | --- |
|  |  |  | C[C@@](N)(CO)CCc1ccc(OCc2ccccc2)cc1 [G024, (2S)-2-amino-4-(4′-benzyloxyphenyl)-2-methyl-1-butanol] | 14.5 ± 0.09 | 6000 ± 100 |  |
| 0.46 ± 0.08 | 500 | 18.5 ± 0.12 | C[C@@](N)(CO)CCc1ccc(OCc2ccc(Cl)c(Cl)c2)cc1 [P053, (S)-2-amino-4-(4-(3,4-dichlorobenzyloxy)phenyl)-2-methylbutan-1-ol] | 28.6 ± 0.15 | 540 ± 60 |  |
| 5.6 ± 0.05 |  | 10.6 ± 0.13 | CCCCCCCCc1ccc(CCC(N)(CO)CO)cc1 [FTY720, reference compound] | 19.1 ± 0.1 |  |  |
|  |  |  | CCCC[C@@H](C)[C@@H](OC(=O)C[C@@H](CC(=O)O)C(=O)O)[C@H](C[C@@H](C)C[C@H](O)CCCC[C@@H](O)C[C@H](O)[C@H](C)N)OC(=O)C[C@@H](CC(=O)O)C(=O)O [FB1, reference compound] | 0.15 ± 0.08 | 220 ± 50 | sub-micromolar |
